Key:
[1] = test system: greenhouse whitefly (Trialeurodes vaporariorum); assay: Insecticidal test on greenhouse whitefly, tomato leaf spray (Test Example 3); type: in vivo; details: 100 ppm test liquid sprayed on tomato leaf, 20 adults inoculated; for mortality at 100 ppm: Trialeurodes vaporariorum, read-out: insecticidal effect rating (mortality of adults)
Method: Insecticidal Test on Greenhouse Whitefly (Trialeurodes vaporariorum)
Each compounds of the present invention listed in Table 3 and Table 4 was dispersed in and diluted with water to prepare a test liquid containing 100 ppm of the test compound. By use of a spraygun, the test liquid was sprayed on the surface of a leaf of tomato plant put in a 20 ml-vial bottle containing water on a turn table. After air-dried, the leaf treated with the test liquid was put in a glass cylinder, and inoculated with 20 adults of greenhouse whitefly thereon. After the inoculation, the leaf was placed in a greenhouse, and the number of adults of greenhouse whitefly was counted. The mortality of the adults was calculated similar to that of conducted in Test Example 2, and the insecticidal effect of each one of the test compounds was evaluated by the method identical to Test Example 1.

[2] = test system: brown rice planthopper (Nilaparvata lugens); assay: whole plant or invertebrate; type: in vivo; details: 192 h, rice seedlings immersed 30 seconds, 10 third-instar nymphs, eight days after inoculation, read-out: insecticidal effect rating (corrected larval mortality)
From the text: Insecticidal Effect on Brown Rice Planthopper (Nilaparvata lugens)
Each substituted aminoquinazolinone (thione) derivative of the general formula (I) or salt thereof of the present invention listed in Tables 3 and 4 was dispersed in and diluted with water to obtain a 500 ppm liquid chemical. Rice seedlings (cultivar: Nihonbare) were immersed in the liquid chemical for 30 seconds and air-dried, after which each seedling was placed in a glass test tube and inoculated with 10 third-instar nymphs of brown rice planthopper, and the test tube was pluged with a cotton plug. Eight days after the inoculation, the dead and alive were counted. The mortality was calculated by the following equation and the control effect was judged according to the criterion described below.
Corrected larval mortality (%)={(Ca/c−Ta/T)/Ca/c}×100
Ta: number of alive nymphs in treated groups
T: number of inoculated nymphs in treated groups
Ca: number of alive numphs in untreated groups
c: number of inoculated nymphs in untreated groups
Criterion: the same as in Test Example 1.

| SMILES | insecticidal effect rating (mortality of adults) [1] | mortality at 500 ppm [2] | mortality at 100 ppm [1] |
| --- | --- | --- | --- |
| O=C1Nc2ccc(I)cc2CN1N=Cc1cccnc1 [compound 10] | D or higher |  |  |
| O=C1Nc2ccc(OC(F)(F)F)cc2CN1/N=C/c1cccnc1 [Compound No. 30, 3-(3-pyridylmethylideneamino)-3,4-dihydro-6-trifluoromethoxy-2(1H)-quinazolinone] |  | 100% | 100% |
| O=C1Nc2ccc(OC(F)F)cc2CN1N=Cc1cccnc1 [compound 38] | D or higher |  |  |
| O=C1Nc2ccc(-c3ccccc3)cc2CN1N=Cc1cccnc1 [compound 86] | D or higher |  |  |
| O=C1Nc2ccc(C(F)(F)F)cc2CN1N=Cc1cccnc1 [compound 14] | D or higher |  |  |
| O=C1Nc2ccc(-c3ccc(Cl)cc3)cc2CN1N=Cc1cccnc1 [compound 90] | D or higher |  |  |
| O=C1Nc2ccc(OC(F)(F)F)cc2CN1NCc1cccnc1 [Compound No. 208, 3-(3-pyridylmethylamino)-3,4-dihydro-6-trifluoromethoxy-2(1H)-quinazolinone] |  | 100% | 100% |
| CCOC(=O)c1ccc2c(c1)CN(N=Cc1cccnc1)C(=O)N2 [compound 78] | D or higher |  |  |
